# Experimental data taken from patent US12558428B2, “Heterobifunctional compounds and their use in treating disease” (Halda Therapeutics OpCo, Inc., priority 2024, dated 2026).
# System: T-Rex 293 cells having increased expression of estrogen receptor alpha protein
# Assay: Cellular growth inhibition assay, T-Rex 293 cells, (+) doxycycline
# Format: cell-based
# Conditions: T-REx-293, 72 h, Table 7-A; T-Rex 293 cells with doxycycline (increased ERα expression); 72 hours; CellTiter-Glo; read-out: (+) Dox GI50
# Method in brief: (§1)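 ERα overexpression was switched on by 3 ng/mL doxycycline in a stably transfected T-Rex 293 clone, while uninduced cells served as the comparison line. Proliferation over 72 h of compound treatment was assessed by ATP luminescence, and GI50 values came from four-parameter curves.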
row,SMILES,GI50
1,Cc1sc2c(c1C)C(c1ccc(C34COC(CN5CCN(c6ccc([C@H]7c8ccc(O)cc8CC[C@H]7c7ccccc7)cc6)CC5)(C3)C4)cc1)=N[C@@H](C)c1nnc(C)n1-2 [III-83],50 to 500 nM
2,Cc1sc2c(c1C)C(c1ccc(N3CC(CCN4CC(COc5ccc([C@@H]6c7ccc(O)cc7CC[C@@H]6c6ccccc6)cc5)C4)C3)cc1)=N[C@@H](C)c1nnc(C)n1-2 [III-84],< 50 nM
3,Cc1sc2c(c1C)C(c1ccc(N3CC(CCN4CC(COc5ccc([C@H]6c7ccc(O)cc7CC[C@H]6c6ccccc6)cc5)C4)C3)cc1)=N[C@@H](C)c1nnc(C)n1-2 [III-85],50 to 500 nM
4,Cc1sc2c(c1C)C(c1ccc(OC3CCN(CC4CCN(c5ccc([C@@H]6c7ccc(O)cc7CC[C@@H]6c6ccccc6)cc5)CC4)CC3)cc1)=N[C@@H](C)c1nnc(C)n1-2 [III-86],50 to 500 nM
5,Cc1sc2c(c1C)C(c1ccc(N3CCC(CN4CC5(CCN(c6ccc([C@@H]7c8ccc(O)cc8CC[C@@H]7c7ccccc7)cc6)CC5)C4)CC3)cc1)=N[C@@H](C)c1nnc(C)n1-2 [III-87],< 50 nM
6,Cc1sc2c(c1C)C(c1ccc(N3CCC4(CC3)CN(CC3CCN(c5ccc([C@@H]6c7ccc(O)cc7CC[C@@H]6c6ccccc6)cc5)CC3)C4)cc1)=N[C@@H](C)c1nnc(C)n1-2 [III-88],< 50 nM
7,Cc1sc2c(c1C)C(c1ccc(N3CC(CN4CCN(c5ccc([C@@H]6c7ccc(O)cc7CC[C@@H]6c6ccccc6)cc5)CC4)C3)cc1)=N[C@@H](C)c1nnc(C)n1-2 [III-89],< 50 nM

# Same assay, conditions: Table 7-A; T-Rex 293 cells with doxycycline (increased ERα expression); 72 hours; CellTiter-Glo; read-out: (+) Dox GI50
row,SMILES,GI50
1,Cc1sc2c(c1C)C(c1ccc(N3CCC(CN4CCN(c5ccc([C@H]6c7ccc(O)cc7CC[C@H]6c6ccccc6)cc5)CC4)CC3)cc1)=N[C@H](Cc1ncco1)c1nnc(C)n1-2 [III-71],> 2500 nM
2,Cc1sc2c(c1C)C(c1ccc(N3CCC(CN4CCN(c5ccc([C@H]6c7ccc(O)cc7CC[C@H]6c6ccccc6)cc5)CC4)CC3)cc1)=N[C@H](Cc1ncco1)c1nnc(C)n1-2 [III-72],500 to 2500 nM

# System: T-Rex 293 cells lacking increased expression of estrogen receptor alpha protein
# Assay: Cellular growth inhibition assay, T-Rex 293 cells, (−) doxycycline
# Format: cell-based
# Conditions: T-REx-293, 72 h, Table 7-A; T-Rex 293 cells without doxycycline (lacking increased ERα expression); 72 hours; CellTiter-Glo; read-out: (−) Dox GI50
# Method in brief: as §1
row,SMILES,GI50
1,Cc1sc2c(c1C)C(c1ccc(C34COC(CN5CCN(c6ccc([C@H]7c8ccc(O)cc8CC[C@H]7c7ccccc7)cc6)CC5)(C3)C4)cc1)=N[C@@H](C)c1nnc(C)n1-2 [III-83],500 to 2500 nM
2,Cc1sc2c(c1C)C(c1ccc(N3CC(CCN4CC(COc5ccc([C@@H]6c7ccc(O)cc7CC[C@@H]6c6ccccc6)cc5)C4)C3)cc1)=N[C@@H](C)c1nnc(C)n1-2 [III-84],500 to 2500 nM
3,Cc1sc2c(c1C)C(c1ccc(N3CC(CCN4CC(COc5ccc([C@H]6c7ccc(O)cc7CC[C@H]6c6ccccc6)cc5)C4)C3)cc1)=N[C@@H](C)c1nnc(C)n1-2 [III-85],500 to 2500 nM
4,Cc1sc2c(c1C)C(c1ccc(OC3CCN(CC4CCN(c5ccc([C@@H]6c7ccc(O)cc7CC[C@@H]6c6ccccc6)cc5)CC4)CC3)cc1)=N[C@@H](C)c1nnc(C)n1-2 [III-86],500 to 2500 nM
5,Cc1sc2c(c1C)C(c1ccc(N3CCC(CN4CC5(CCN(c6ccc([C@@H]7c8ccc(O)cc8CC[C@@H]7c7ccccc7)cc6)CC5)C4)CC3)cc1)=N[C@@H](C)c1nnc(C)n1-2 [III-87],50 to 500 nM
6,Cc1sc2c(c1C)C(c1ccc(N3CCC4(CC3)CN(CC3CCN(c5ccc([C@@H]6c7ccc(O)cc7CC[C@@H]6c6ccccc6)cc5)CC3)C4)cc1)=N[C@@H](C)c1nnc(C)n1-2 [III-88],50 to 500 nM
7,Cc1sc2c(c1C)C(c1ccc(N3CC(CN4CCN(c5ccc([C@@H]6c7ccc(O)cc7CC[C@@H]6c6ccccc6)cc5)CC4)C3)cc1)=N[C@@H](C)c1nnc(C)n1-2 [III-89],500 to 2500 nM

# Same assay, conditions: Table 7-A; T-Rex 293 cells without doxycycline (lacking increased ERα expression); 72 hours; CellTiter-Glo; read-out: (−) Dox GI50
row,SMILES,GI50
1,Cc1sc2c(c1C)C(c1ccc(N3CCC(CN4CCN(c5ccc([C@H]6c7ccc(O)cc7CC[C@H]6c6ccccc6)cc5)CC4)CC3)cc1)=N[C@H](Cc1ncco1)c1nnc(C)n1-2 [III-71],> 2500 nM
2,Cc1sc2c(c1C)C(c1ccc(N3CCC(CN4CCN(c5ccc([C@H]6c7ccc(O)cc7CC[C@H]6c6ccccc6)cc5)CC4)CC3)cc1)=N[C@H](Cc1ncco1)c1nnc(C)n1-2 [III-72],500 to 2500 nM

# System: MCF7 cells (ATCC #HTB-22)
# Assay: Cellular growth inhibition assay, MCF7 cells purchased from ATCC
# Format: cell-based
# Conditions: Homo sapiens, MCF7, 144 h, Table 8-A; MCF7 cells purchased from ATCC; six days; CellTiter-Glo; read-out: GI50
# Method in brief: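 MCF7 cells in RPMI 1640 with 10% FBS and 0.2 U/ml insulin, seeded at 1,500 cells/well (ATCC) or 225 cells/well (ECACC). Compounds added 24 h later, then 6 days at 37° C. Viability by CellTiter-Glo 2.0 luminescence. GI50 from four-parameter fit.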
row,SMILES,GI50
1,Cc1sc2c(c1C)C(c1ccc(C34COC(CN5CCN(c6ccc([C@H]7c8ccc(O)cc8CC[C@H]7c7ccccc7)cc6)CC5)(C3)C4)cc1)=N[C@@H](C)c1nnc(C)n1-2 [III-83],50 to 500 nM
2,Cc1sc2c(c1C)C(c1ccc(N3CC(CCN4CC(COc5ccc([C@@H]6c7ccc(O)cc7CC[C@@H]6c6ccccc6)cc5)C4)C3)cc1)=N[C@@H](C)c1nnc(C)n1-2 [III-84],50 to 500 nM
3,Cc1sc2c(c1C)C(c1ccc(N3CC(CCN4CC(COc5ccc([C@H]6c7ccc(O)cc7CC[C@H]6c6ccccc6)cc5)C4)C3)cc1)=N[C@@H](C)c1nnc(C)n1-2 [III-85],50 to 500 nM
4,Cc1sc2c(c1C)C(c1ccc(OC3CCN(CC4CCN(c5ccc([C@@H]6c7ccc(O)cc7CC[C@@H]6c6ccccc6)cc5)CC4)CC3)cc1)=N[C@@H](C)c1nnc(C)n1-2 [III-86],50 to 500 nM
5,Cc1sc2c(c1C)C(c1ccc(N3CCC(CN4CC5(CCN(c6ccc([C@@H]7c8ccc(O)cc8CC[C@@H]7c7ccccc7)cc6)CC5)C4)CC3)cc1)=N[C@@H](C)c1nnc(C)n1-2 [III-87],< 50 nM
6,Cc1sc2c(c1C)C(c1ccc(N3CCC4(CC3)CN(CC3CCN(c5ccc([C@@H]6c7ccc(O)cc7CC[C@@H]6c6ccccc6)cc5)CC3)C4)cc1)=N[C@@H](C)c1nnc(C)n1-2 [III-88],< 50 nM
7,Cc1sc2c(c1C)C(c1ccc(N3CC(CN4CCN(c5ccc([C@@H]6c7ccc(O)cc7CC[C@@H]6c6ccccc6)cc5)CC4)C3)cc1)=N[C@@H](C)c1nnc(C)n1-2 [III-89],50 to 500 nM

# Same assay, conditions: Table 8-A; MCF7 cells purchased from ATCC; six days; CellTiter-Glo; read-out: GI50
row,SMILES,GI50
1,Cc1sc2c(c1C)C(c1ccc(N3CCC(CN4CCN(c5ccc([C@H]6c7ccc(O)cc7CC[C@H]6c6ccccc6)cc5)CC4)CC3)cc1)=N[C@H](Cc1ncco1)c1nnc(C)n1-2 [III-71],> 2500 nM
2,Cc1sc2c(c1C)C(c1ccc(N3CCC(CN4CCN(c5ccc([C@H]6c7ccc(O)cc7CC[C@H]6c6ccccc6)cc5)CC4)CC3)cc1)=N[C@H](Cc1ncco1)c1nnc(C)n1-2 [III-72],500 to 2500 nM
